Measurements published in the supplement of paper PMC10307832.

compound: O=C(c1cc(Cc2n[nH]c(=O)c3ccccc23)ccc1F)N1CCN(C(=O)C2CC2)CC1 [Olaparib] + Cc1nc(NC(=O)N2CCC[C@H]2C(N)=O)sc1-c1ccnc(C(C)(C)C(F)(F)F)c1 [Alpelisib] (partner 2 µM); test: relative viability (nuclei count vs DMSO), 5 days (fraction); higher = more cells survive; conditions: first compound 2.53 µM
Outline: (§1)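 Nuclei were stained with Hoechst during a one-step fixation (final 0.05% Triton X-100, 1% formaldehyde, 1 ug/ml Hoechst) carried out 5 days after dosing, then counted on 4× images. The cells, lung cancer lines in 1536-well plates, had been dosed by pin tool the day after seeding with one drug alone or a fixed anchor-drug dose plus five library-drug doses (not always all listed) in √10 steps. Relative viability is the nuclei count in treated wells divided by that in vehicle wells, and each value is the median of duplicate plates.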

In order of falling relative viability:
1. SK-MES-1  1.02
2. SK-LU-1  0.837
3. UMC-11  0.825
4. NCI-H2228  0.78
5. SW 1573  0.627
6. NCI-H2023  0.58

same assay, conditions: first compound 8 µM

In order of falling relative viability:
1. CAL-12T  1.12
2. NCI-H1299  1.03
3. BEN  0.995
4. ABC-1  0.981
5. 201T  0.98
6. NCI-H2009  0.976
7. NCI-H1563  0.973
8. EKVX  0.903
9. HCC-44  0.839
10. A-427  0.809
11. EPLC-272H  0.789
12. HARA  0.76
13. Calu-6  0.729
14. HCC-15  0.724
15. SK-MES-1  0.697
16. H3255  0.647
17. COR-L 105  0.639
18. EBC-1  0.633
19. EMC-BAC-2  0.621
20. A549  0.589
21. SK-LU-1  0.554
22. NCI-H2228  0.534
23. NCI-H520  0.529
24. IA-LM  0.509
25. NCI-H1395  0.504
26. NCI-H2023  0.501
27. SW 1573  0.471
28. NCI-H661  0.455
29. NCI-H1703  0.412
30. UMC-11  0.409
31. HCC-78  0.365
32. COR-L23  0.357
33. HCC-366  0.15

compound: O=C(c1cc(Cc2n[nH]c(=O)c3ccccc23)ccc1F)N1CCN(C(=O)C2CC2)CC1 [Olaparib] + N=C(N)NC(=N)NCCc1ccccc1 [Phenformin] (partner 250 µM); test: as above; conditions: first compound 0.08 µM
Outline: as §1

In order of falling relative viability:
1. HCC-366  0.768
2. SK-MES-1  0.745
3. HCC-78  0.72
4. CAL-12T  0.715
5. NCI-H1563  0.677
6. NCI-H522  0.665
7. NCI-H520  0.645
8. ChaGo-K-1  0.624
9. SW 900  0.614
10. SK-LU-1  0.612
11. HCC-15  0.599
12. HARA  0.584
13. NCI-H1623  0.582
14. NCI-H2342  0.577
15. EMC-BAC-2  0.558
16. NCI-H2009  0.557
17. COR-L 105  0.535
18. COR-L23  0.492
19. NCI-H2023  0.466
20. A-427  0.461
21. NCI-H1650  0.446
22. SW 1573  0.444
23. H3255  0.435
24. NCI-H1395  0.419
25. 201T  0.396
26. EPLC-272H  0.389
27. UMC-11  0.36
28. NCI-H2228  0.333
29. EKVX  0.268
30. ABC-1  0.239
31. A549  0.234
32. NCI-H661  0.219
33. HCC-44  0.208

same assay, conditions: first compound 0.253 µM

In order of falling relative viability:
1. NCI-H522  0.722
2. HCC-78  0.66
3. NCI-H1563  0.657
4. NCI-H520  0.624
5. NCI-H1623  0.619
6. HCC-366  0.583
7. SK-MES-1  0.56
8. SW 900  0.525
9. EMC-BAC-2  0.504
10. NCI-H2342  0.503
11. CAL-12T  0.497
12. NCI-H2009  0.49
13. NCI-H1650  0.475
14. SK-LU-1  0.473
15. 201T  0.465
16. ChaGo-K-1  0.441
17. HCC-15  0.423
18. COR-L 105  0.42
19. NCI-H1395  0.4
20. HARA  0.398
21. COR-L23  0.383
22. SW 1573  0.373
23. NCI-H2023  0.36
24. H3255  0.342
25. UMC-11  0.31
26. EPLC-272H  0.298
27. BEN  0.292
28. NCI-H661  0.278
29. NCI-H2228  0.276
30. A-427  0.259
31. EKVX  0.243
32. ABC-1  0.234
33. A549  0.217
34. HCC-44  0.167

same assay, conditions: first compound 2.53 µM

In order of rising relative viability:
1. A549  0.172
2. EKVX  0.221
3. ABC-1  0.243
4. A-427  0.258
5. SW 1573  0.266
6. HCC-44  0.271
7. NCI-H661  0.273
8. BEN  0.28
9. NCI-H2228  0.287
10. EPLC-272H  0.289
11. UMC-11  0.294
12. HARA  0.36
13. H3255  0.38
14. NCI-H2023  0.391
15. NCI-H1650  0.405
16. COR-L23  0.408
17. NCI-H1395  0.423
18. NCI-H2009  0.438
19. HCC-15  0.445
20. ChaGo-K-1  0.475
21. COR-L 105  0.479
22. 201T  0.481
23. HCC-366  0.489
24. NCI-H520  0.495
25. NCI-H1623  0.497
26. CAL-12T  0.539
27. NCI-H2342  0.544
28. EMC-BAC-2  0.558
29. SW 900  0.558
30. SK-LU-1  0.569
31. NCI-H522  0.582
32. SK-MES-1  0.628
33. NCI-H1563  0.681
34. HCC-78  0.756

same assay, conditions: first compound 8 µM

In order of rising relative viability:
1. A549  0.121
2. HCC-44  0.225
3. UMC-11  0.229
4. A-427  0.241
5. EKVX  0.248
6. NCI-H661  0.253
7. SW 1573  0.258
8. BEN  0.261
9. ABC-1  0.276
10. COR-L23  0.294
11. EPLC-272H  0.338
12. NCI-H2228  0.345
13. NCI-H2023  0.359
14. HARA  0.36
15. SK-LU-1  0.365
16. H3255  0.385
17. NCI-H520  0.385
18. NCI-H2009  0.386
19. NCI-H1395  0.396
20. HCC-15  0.409
21. HCC-366  0.413
22. COR-L 105  0.418
23. ChaGo-K-1  0.42
24. 201T  0.43
25. EMC-BAC-2  0.437
26. NCI-H1623  0.474
27. SK-MES-1  0.484
28. NCI-H1650  0.537
29. SW 900  0.555
30. CAL-12T  0.558
31. NCI-H522  0.562
32. NCI-H2342  0.598
33. HCC-78  0.714
34. NCI-H1563  0.734

compound: O=C(c1cc(Cc2n[nH]c(=O)c3ccccc23)ccc1F)N1CCN(C(=O)C2CC2)CC1 [Olaparib] + CS(=O)(=O)N1CCN(Cc2cc3nc(-c4cccc5[nH]ncc45)nc(N4CCOCC4)c3s2)CC1 [Pictilisib] (partner 1 µM); test: as above; conditions: first compound 0.08 µM
Outline: as §1

In order of falling relative viability:
1. ChaGo-K-1  1.27
2. Calu-6  1.12
3. NCI-H2009  0.996
4. COR-L23  0.918
5. ABC-1  0.916
6. UMC-11  0.909
7. HCC-15  0.866
8. NCI-H1650  0.866
9. NCI-H1299  0.815
10. NCI-H1395  0.78
11. CAL-12T  0.772
12. A-427  0.697
13. HCC-44  0.697
14. 201T  0.669
15. EMC-BAC-2  0.662
16. A549  0.636
17. NCI-H1563  0.614
18. SK-LU-1  0.608
19. SW 1573  0.526
20. BEN  0.52
21. EKVX  0.493
22. H3255  0.478
23. NCI-H661  0.431
24. NCI-H2228  0.429
25. HARA  0.407
26. SK-MES-1  0.399
27. EBC-1  0.392
28. IA-LM  0.392
29. COR-L 105  0.389
30. NCI-H520  0.318
31. EPLC-272H  0.311
32. NCI-H1703  0.299
33. NCI-H2023  0.286
34. HCC-78  0.241
35. HCC-366  0.135

same assay, conditions: first compound 0.253 µM

In order of falling relative viability:
1. Calu-6  0.825
2. NCI-H1299  0.805
3. ABC-1  0.777
4. NCI-H2009  0.71
5. UMC-11  0.687
6. COR-L23  0.674
7. ChaGo-K-1  0.674
8. 201T  0.665
9. HCC-15  0.647
10. NCI-H1563  0.645
11. NCI-H1395  0.639
12. A-427  0.571
13. SK-LU-1  0.569
14. HCC-44  0.552
15. BEN  0.551
16. NCI-H1650  0.523
17. EMC-BAC-2  0.5
18. HARA  0.454
19. EKVX  0.444
20. NCI-H2228  0.418
21. CAL-12T  0.413
22. H3255  0.406
23. NCI-H661  0.399
24. A549  0.398
25. COR-L 105  0.392
26. IA-LM  0.372
27. NCI-H1703  0.346
28. EBC-1  0.345
29. NCI-H520  0.315
30. SK-MES-1  0.297
31. EPLC-272H  0.284
32. HCC-78  0.204
33. NCI-H2023  0.195
34. HCC-366  0.179

same assay, conditions: first compound 2.53 µM

In order of falling relative viability:
1. Calu-6  0.858
2. NCI-H1299  0.8
3. ChaGo-K-1  0.75
4. COR-L23  0.724
5. HCC-44  0.7
6. NCI-H1563  0.695
7. NCI-H2009  0.693
8. HCC-15  0.678
9. UMC-11  0.658
10. ABC-1  0.65
11. 201T  0.631
12. SK-LU-1  0.602
13. BEN  0.593
14. NCI-H1395  0.575
15. NCI-H1650  0.572
16. HARA  0.567
17. A-427  0.547
18. EMC-BAC-2  0.524
19. SW 1573  0.508
20. A549  0.456
21. CAL-12T  0.452
22. H3255  0.445
23. NCI-H661  0.439
24. COR-L 105  0.415
25. EKVX  0.41
26. EBC-1  0.368
27. SK-MES-1  0.355
28. IA-LM  0.321
29. NCI-H2228  0.292
30. EPLC-272H  0.278
31. NCI-H520  0.278
32. NCI-H1703  0.275
33. NCI-H2023  0.245
34. HCC-78  0.208
35. HCC-366  0.11

same assay, conditions: first compound 8 µM

In order of rising relative viability:
1. HCC-366  0.138
2. HCC-78  0.196
3. NCI-H520  0.236
4. NCI-H1703  0.27
5. NCI-H2023  0.275
6. EPLC-272H  0.283
7. EBC-1  0.304
8. UMC-11  0.307
9. IA-LM  0.317
10. SK-MES-1  0.328
11. NCI-H2228  0.336
12. SK-LU-1  0.353
13. HARA  0.37
14. A549  0.376
15. SW 1573  0.381
16. COR-L23  0.385
17. H3255  0.386
18. NCI-H661  0.386
19. COR-L 105  0.387
20. CAL-12T  0.439
21. NCI-H2009  0.475
22. EKVX  0.477
23. EMC-BAC-2  0.496
24. NCI-H1395  0.534
25. HCC-44  0.544
26. NCI-H1299  0.582
27. A-427  0.584
28. ABC-1  0.625
29. HCC-15  0.627
30. NCI-H1563  0.635
31. NCI-H1650  0.647
32. ChaGo-K-1  0.661
33. BEN  0.674
34. 201T  0.704
35. Calu-6  0.75
